Where two headings read alike, the source gives them in different places.
Columns and labels:
Type in all cases: cell-based
[1] = test system: HCV 2a Rluc cells (NS5A chimeric genotype 2a JFH-1 replicon with genotype 2a J6 strain NS5A gene, M31 present); test: HCV replicon reporter assay, genotype 2a J6 (M31 present); settings: Hepatitis C virus, read-out: 2a J6
Procedure, shortened: (§1)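 Replicons used: genotype 1b Con1, 1a H77, 2a JFH-1, and a 2a JFH-1 chimera with J6-strain NS5A (M31 present), all dicistronic.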

[2] = test system: HCV 1a RLuc cells (dicistronic genotype 1a H77 replicon, RLuc reporter); test: microbe, parasite or virus in culture; settings: Hepatitis C virus, read-out: 1a
Procedure, shortened: as §1

[3] = test system: HCV 4a Rluc cells (NS5A chimeric genotype 1b Con1 replicon with genotype 4a NS5A gene); test: microbe, parasite or virus in culture; settings: Hepatitis C virus, read-out: 4a
Procedure, shortened: (§2)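 Replicon cells stably carrying the listed RLuc-encoding dicistronic replicons were seeded and treated with DMSO serial dilutions of compound (10 mM stocks) diluted into culture medium. After 72 h, cells were lysed and Renilla luciferase activity measured. EC50 was derived by non-linear regression.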

[4] = test system: HCV 1b RLuc cells (dicistronic genotype 1b Con1 replicon, RLuc reporter); test: microbe, parasite or virus in culture; settings: Hepatitis C virus, read-out: 1b (nM)
Procedure, shortened: as §1

[5] = test system: HCV 2b Rluc cells (NS5A chimeric genotype 2a JFH-1 replicon with genotype 2b MD2b-1 NS5A gene, M31 present); test: microbe, parasite or virus in culture; settings: Hepatitis C virus, read-out: 2b
Procedure, shortened: as §2

[6] = test system: HCV 3a RLuc cells (NS5A chimeric genotype 1b Con1 replicon with consensus genotype 3a NS5A gene); test: microbe, parasite or virus in culture; settings: Hepatitis C virus
Procedure, shortened: as §2

[7] = test system: HCV 2a JFH-1 Rluc cells (dicistronic genotype 2a JFH-1 replicon, RLuc reporter); test: microbe, parasite or virus in culture; settings: Hepatitis C virus, read-out: 2a JFH
Procedure, shortened: as §1

[8] = 72 h, Table 1, genotype 1a H77 replicon, 72 hours
[9] = read-out: 3a, Table 1, genotype 3a NS5A chimeric replicon
[10] = 72 h, Table 1, genotype 2a JFH-1 replicon, 72 hours
[11] = read-out: 3a, genotype 3a replicon
[12] = genotype 2a JFH-1 RLuc replicon

Structure (SMILES)	EC50 [1] [nM]	EC50 [2, 8] [nM]	EC50 [3] [nM]	EC50 ([4]; 72 h) [nM]	EC50 [5] [nM]	EC50 [6, 9] [nM]	EC50 [7, 10] [nM]	EC50 ([2]; genotype 1a replicon) [nM]	EC50 [6, 11] [nM]	EC50 ([7]; genotype 2a JFH-1 replicon) [nM]	EC50 ([2]; genotype 1a H77 RLuc replicon) [nM]	EC50 [4] [nM]	EC50 [7, 12] [nM]	EC50 ([6]; read-out: 3a, genotype 3a NS5A chimeric replicon) [nM]
COC(=O)N[C@H](C(=O)N1CCC[C@H]1c1ncc(-c2ccc3c4c(ccc3c2)-c2ccc(-c3cnc([C@@H]5CCCN5C(=O)[C@H](NC(=O)OC)c5ccccc5)[nH]3)cc2CO4)[nH]1)C(C)C [Example 1]	> 44	0.001 to 0.999	0.001 to 0.99	0.008	> 44	0.001 to 0.99	0.001 to 0.999							
COC(=O)N[C@H](C(=O)N1CCC[C@H]1c1ncc(-c2ccc3c(c2)COc2c-3ccc3cc(-c4cnc([C@@H]5CCCN5C(=O)[C@H](NC(=O)OC)c5ccccc5)[nH]4)ccc23)[nH]1)C(C)C [Example 2]	> 44	0.001 to 0.999	0.001 to 0.99	0.005	> 44	0.001 to 0.99	0.001 to 0.999							
COC(=O)N[C@H](C(=O)N1CCC[C@H]1c1ncc(-c2ccc3c4c(ccc3c2)-c2ccc(-c3cnc([C@@H]5CCCN5C(=O)[C@@H](NC(=O)OC)C5CCOCC5)[nH]3)cc2CO4)[nH]1)C(C)C [Example 8]	> 44	0.001 to 0.999	0.001 to 0.99	0.006	> 44	1 to 4.99	0.001 to 0.999							
COC(=O)N[C@H](C(=O)N1CCC[C@H]1c1ncc(-c2cc3c4c(c2)OCc2cc(-c5cnc([C@@H]6CCCN6C(=O)[C@@H](NC(=O)OC)C(C)C)[nH]5)cc(c2-4)OC3)[nH]1)C(C)C [Example 9]	> 44	0.001 to 0.999	0.001 to 0.99	0.022	1 to 44	0.001 to 0.99	0.001 to 0.999							
CC[C@H](NC(=O)OC)C(=O)N1CCC[C@H]1c1ncc(-c2ccc3c4c(ccc3c2)-c2ccc(-c3cnc([C@@H]5CCCN5C(=O)[C@H](NC(=O)OC)c5ccccc5)[nH]3)cc2CO4)[nH]1 [Example 12]	> 44	0.001 to 0.999	0.001 to 0.99	0.008	> 44	0.001 to 0.99	0.001 to 0.999							
COC(=O)N[C@H](C(=O)N1CCC[C@H]1c1ncc(-c2ccc3c4c(ccc3c2)-c2ccc(-c3cnc([C@@H]5CCCN5C(=O)[C@H](NC(=O)OC)c5ccccc5)[nH]3)cc2CO4)[nH]1)C1CCOCC1 [Example 13]	1 to 44	0.001 to 0.999	0.001 to 0.99	0.015	0.001 to 0.999	0.001 to 0.99	0.001 to 0.999							
O=C([C@H](Nc1ncccn1)c1ccccc1)N1CCC[C@H]1c1ncc(-c2cc3c4c(c2)OCc2cc(-c5cnc([C@@H]6CCCN6C(=O)[C@H](Nc6ncccn6)c6ccccc6)[nH]5)cc(c2-4)OC3)[nH]1 [Example 463]	> 44		> 5		> 44			1 to 44	1 to 4.99	1 to 44				
CN1CCN(C(=O)N[C@@H](C(=O)N2CCC[C@H]2c2ncc(-c3cc4c5c(c3)OCc3cc(-c6cnc([C@@H]7CCCN7C(=O)[C@H](NC(=O)N7CCN(C)CC7)c7ccccc7)[nH]6)cc(c3-5)OC4)[nH]2)c2ccccc2)CC1 [Example 464]	1 to 44		> 5		> 44			> 44	1 to 4.99	1 to 44				
CN(C)CCC(=O)N[C@@H](C(=O)N1CCC[C@H]1c1ncc(-c2cc3c4c(c2)OCc2cc(-c5cnc([C@@H]6CCCN6C(=O)[C@H](NC(=O)CCN(C)C)c6ccccc6)[nH]5)cc(c2-4)OC3)[nH]1)c1ccccc1 [Example 467]	> 44		> 5		> 44			> 44	> 5	> 44				
COC[C@H]1C[C@@H](c2nc3ccc4cc(-c5ccc6c(ccc7nc([C@@H]8C[C@H]9C[C@H]9N8C(=O)[C@@H](NC(=O)OC)C(C)(C)C)[nH]c76)c5)ccc4c3[nH]2)N(C(=O)[C@H](NC(=O)OC)c2ccccc2)C1 [Example 530]	0.001 to 0.999		0.001 to 0.99		0.001 to 0.999						0.001 to 0.999	0.011	0.001 to 0.999	
CC[C@H](C)[C@H](NC(=O)OC)C(=O)N1[C@@H]2C[C@@H]2C[C@H]1c1nc2ccc3cc(-c4ccc5c(ccc6nc([C@@H]7C[C@H](COC)CN7C(=O)[C@H](NC(=O)C7CC7)c7ccccc7)[nH]c65)c4)ccc3c2[nH]1 [Example 531]	0.001 to 0.999		0.001 to 0.99		0.001 to 0.999						0.001 to 0.999	0.018	0.001 to 0.999	
COC[C@H]1C[C@@H](c2nc3ccc4cc(-c5ccc6c(ccc7nc([C@@H]8C[C@H]9C[C@H]9N8C(=O)[C@@H](NC(=O)OC)C(C)(C)C)[nH]c76)c5)ccc4c3[nH]2)N(C(=O)[C@H](NC(=O)C2CC2)c2ccccc2)C1 [Example 532]	0.001 to 0.999		0.001 to 0.99		0.001 to 0.999						0.001 to 0.999	0.009	0.001 to 0.999	
COC[C@H]1C[C@@H](c2nc3ccc4cc(-c5ccc(-c6cnc([C@@H]7CCCN7C(=O)[C@@H](NC(=O)OC)C(C)C)[nH]6)cc5)ccc4c3[nH]2)N(C(=O)[C@H](NC(=O)C2CCC2)c2ccccc2)C1 [Example 533]	0.001 to 0.999		0.001 to 0.99		0.001 to 0.999						0.001 to 0.999	0.012	0.001 to 0.999	
CC[C@H](C)[C@H](NC(=O)OC)C(=O)N1CCC[C@H]1c1ncc(-c2ccc(-c3ccc4c(ccc5nc([C@@H]6C[C@H](COC)CN6C(=O)[C@H](NC(=O)C6CC6)c6ccccc6)[nH]c54)c3)cc2)[nH]1 [Example 534]	0.001 to 0.999		0.001 to 0.99		0.001 to 0.999						0.001 to 0.999	0.011	0.001 to 0.999	
COC(=O)N[C@H](C(=O)N1CCC[C@H]1c1nc2ccc3cc(-c4ccc5c(ccc6nc([C@@H]7C[C@H](SC)CN7C(=O)[C@H](NC(=O)OC)c7ccccc7)[nH]c65)c4)ccc3c2[nH]1)C(C)C [Example 535]	0.001 to 0.999		0.001 to 0.99		0.001 to 0.999						0.001 to 0.999	0.022	0.001 to 0.999	
COC[C@H]1C[C@@H](c2nc3ccc4cc(-c5ccc6c(ccc7nc([C@@H]8CCCN8C(=O)[C@@H](NC(=O)OC)C(C)C)[nH]c76)c5)ccc4c3[nH]2)N(C(=O)[C@H](NC(=O)C2CCC2)c2ccccc2)C1 [Example 537]	0.001 to 0.999		0.001 to 0.99		0.001 to 0.999						0.001 to 0.999	0.014	0.001 to 0.999	
COC[C@H]1C[C@@H](c2nc3ccc4cc(-c5ccc6c(ccc7nc([C@@H]8C[C@H](C)CN8C(=O)[C@@H](NC(=O)OC)C(C)C)[nH]c76)c5)ccc4c3[nH]2)N(C(=O)[C@H](NC(=O)C2CCC2)c2ccccc2)C1 [Example 541]	0.001 to 0.999		0.001 to 0.99		0.001 to 0.999						0.001 to 0.999	0.034	0.001 to 0.999	
COC[C@H]1C[C@@H](c2nc3ccc4cc(-c5ccc6c(ccc7nc([C@@H]8C[C@H](C)CN8C(=O)[C@@H](NC(=O)OC)C(C)C)[nH]c76)c5)ccc4c3[nH]2)N(C(=O)[C@H](NC(=O)C2CC(F)(F)C2)c2ccccc2)C1 [Example 542]	0.001 to 0.999		0.001 to 0.99		0.001 to 0.999						0.001 to 0.999	0.05	0.001 to 0.999	
COC[C@H]1C[C@@H](c2ncc(-c3ccc(-c4ccc(-c5cnc([C@@H]6C[C@H](C)CN6C(=O)[C@H](NC(=O)C6CC6)c6ccccc6)[nH]5)cc4)cc3)[nH]2)N(C(=O)[C@@H](NC(=O)OC)C(C)C)C1 [Example 557]	0.001 to 0.999		0.001 to 0.99		0.001 to 0.999						0.001 to 0.999	0.028	0.001 to 0.999	
COC[C@H]1C[C@@H](c2nc3ccc4cc5c(cc4c3[nH]2)OCc2cc(-c3ccc4nc([C@@H]6CCCN6C(=O)[C@@H](NC(=O)OC)C(C)C)[nH]c4c3)ccc2-5)N(C(=O)[C@@H](NC(=O)OC)C(C)C)C1 [Example 563]	> 44		0.001 to 0.99		> 44						0.001 to 0.999	0.007	0.001 to 0.999	
CC[C@H](C)[C@H](NC(=O)OC)C(=O)N1C[C@@H](COC)C[C@H]1c1ncc(-c2ccc3c(c2)COc2cc4c(ccc5nc([C@@H]6C[C@H](COC)CN6C(=O)[C@@H](NC(=O)OC)[C@@H](C)CC)[nH]c54)cc2-3)[nH]1 [Example 580]	0.001 to 0.999		0.001 to 0.99		0.001 to 0.999						0.001 to 0.999		0.001 to 0.999	0.001 to 0.99
